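How tested: cells in 96-well plates exposed to compound for 48 hours at five concentrations. GI50 marks 50% less growth.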 The source made the active and inactive calls. Rule as the data show it: active = GI50 up to about 1.1 µM and inactive = higher.
Tests used:
Experiment in all cases: inhibition of tumour cell growth, NCI panel, 48 h
ACHN = system: ACHN
HL-60 = system: HL-60
NCI/ADR-RES = system: NCI/ADR-RES
NCI-H460 = system: NCI-H460
MDA-MB-231 = system: MDA-MB-231
CAKI-1 = system: CAKI-1
Malme-3M = system: Malme-3M
SR = system: SR
MOLT-4 = system: MOLT-4
HOP-62 = system: HOP-62
MCF7 = system: MCF7
U-251 = system: U-251
HT-29 = system: HT-29
T47D = system: T47D
SK-MEL-2 = system: SK-MEL-2
UACC-257 = system: UACC-257
A498 = system: A498
Hs-578T = system: Hs-578T
KM12 = system: KM12
NCI-H23 = system: NCI-H23

Row | Compound | GI50 (ACHN) | GI50 (HL-60) | GI50 (NCI/ADR-RES) | GI50 (NCI-H460) | GI50 (MDA-MB-231) | GI50 (CAKI-1) | GI50 (Malme-3M) | GI50 (SR) | GI50 (MOLT-4) | GI50 (HOP-62) | GI50 (MCF7) | GI50 (U-251) | GI50 (HT-29) | GI50 (T47D) | GI50 (SK-MEL-2) | GI50 (UACC-257) | GI50 (A498) | GI50 (Hs-578T) | GI50 (KM12) | GI50 (NCI-H23)
1 | O=C(O)CCc1c2ccc(=O)c(O)c-2oc2c(O)c(O)ccc12 | 39.1 µM (inactive) | 44.3 µM (inactive) | > 100 µM (inactive) | > 100 µM (inactive) | 20.6 µM (inactive) | > 100 µM (inactive) | 26.4 µM (inactive) | 37.2 µM (inactive) | 23.3 µM (inactive) | > 100 µM (inactive) | 14.8 µM (inactive) | 30.1 µM (inactive) | > 100 µM (inactive) | > 100 µM (inactive) | > 100 µM (inactive) | > 100 µM (inactive) | 46.7 µM (inactive) | 14.2 µM (inactive) | 29.3 µM (inactive) | 61.4 µM (inactive)
2 | C[N+]1(CCN=C=NC2CCCCC2)CCOCC1 | > 100 µM (inactive) | > 100 µM (inactive) | > 100 µM (inactive) | > 100 µM (inactive) | > 100 µM (inactive) | > 100 µM (inactive) | > 100 µM (inactive) | > 100 µM (inactive) | > 100 µM (inactive) | > 100 µM (inactive) | > 100 µM (inactive) | > 100 µM (inactive) | > 100 µM (inactive) | > 100 µM (inactive) | > 100 µM (inactive) | > 100 µM (inactive) | > 100 µM (inactive) | > 100 µM (inactive) | > 100 µM (inactive) | > 100 µM (inactive)
3 | CCOC(=O)CCC(NC(=O)Cc1ccc(Oc2nc3ccccc3nc2-c2ccccc2)cc1)C(=O)OCC (stereo not given) | > 100 µM (inactive) | > 100 µM (inactive) | 70.8 µM (inactive) | > 100 µM (inactive) | > 100 µM (inactive) | > 100 µM (inactive) | > 100 µM (inactive) | > 100 µM (inactive) | > 100 µM (inactive) | 45.6 µM (inactive) | 91 µM (inactive) | 75.9 µM (inactive) | > 100 µM (inactive) | 24.9 µM (inactive) | > 100 µM (inactive) | > 100 µM (inactive) | > 100 µM (inactive) | 34.8 µM (inactive) | > 100 µM (inactive) | > 100 µM (inactive)
4 | O=C1C(N2CCN(CCOCCO)CC2)=C(Cl)C(=O)c2ncccc21 | 19.1 µM (inactive) | 3.06 µM (inactive) | 37.4 µM (inactive) | 75.2 µM (inactive) | 19.2 µM (inactive) | 17.3 µM (inactive) | 8.77 µM (inactive) | > 10 µM (inactive) | 2.37 µM (inactive) | > 10 µM (inactive) | 3.78 µM (inactive) | 18.7 µM (inactive) | 22.6 µM (inactive) | 2.58 µM (inactive) | 20.9 µM (inactive) | 22 µM (inactive) | > 10 µM (inactive) | > 10 µM (inactive) | > 10 µM (inactive) | 20.3 µM (inactive)
5 | O=C(C#Cc1ccccc1)C1=Cc2ccccc2OC1 | 2.17 µM (inactive) | 2.19 µM (inactive) | 2.79 µM (inactive) | 4.83 µM (inactive) | 3.21 µM (inactive) | 1.88 µM (inactive) | 4.2 µM (inactive) | 7.23 µM (inactive) | 3.33 µM (inactive) | 13.6 µM (inactive) | 1.42 µM (inactive) | 3.6 µM (inactive) | 2.11 µM (inactive) | 3.26 µM (inactive) | 3.94 µM (inactive) | 2.7 µM (inactive) | 19.2 µM (inactive) | 8.26 µM (inactive) | 4.25 µM (inactive) | 2.14 µM (inactive)
6 | CC(=O)O[C@H]1C(=O)[C@@]2(C)[C@H]([C@H](OC(=O)c3ccoc3)[C@]3(O)C[C@H](OC(=O)[C@H](O)[C@@H](NC(=O)c4ccccc4)c4ccccc4)C(C)=C1C3(C)C)[C@]1(OC(C)=O)CO[C@@H]1C[C@@H]2O | 2.1 µM (inactive) | 0.0107 µM (active) | > 10.9 µM (inactive) | 0.0524 µM (active) | 3.05 µM (inactive) | 8.18 µM (inactive) | 0.0316 µM (active) | 0.026 µM (active) | 0.045 µM (active) | 0.206 µM (active) | 0.0138 µM (active) | 0.0811 µM (active) | 0.0307 µM (active) | 0.0461 µM (active) | 0.0448 µM (active) | 0.538 µM (active) | 0.811 µM (active) | 0.0249 µM (active) | 0.0344 µM (active) | > 12.5 µM (inactive)
